Experimental findings from patent publication US9630964B2, “Fluoro-9-methyl-β-carbolines” (priority 2013, dated 2017) are described below.

The assay concerns outer hair cells (OHC) in the inner ear. As to the kind of experiment: Immunohistochemical experiments: dying of outer hair cells after acoustic trauma. The note with it: guinea pig, intratympanic, total 0.105 mg per ear, day 14. Type of assay: in vivo. The protocol: To induce an acoustic trauma, guinea pigs were anesthetized with 60 mg/kg ketamine and 8 mg/kg xylazine. Then Bepanten ointment (Bayer) was administered to the eyes and the animal was put in a soundproof chamber. A calibrated speaker was placed directly above the head of the animal, wherein it was set to emit a half octave band, centered around 8 kHz, with a volume of 110 dB for duration of 30 minutes.
The thermosensitive, liquid mixture was administered under view by a Hamilton syringe directly in front of the round window membrane of the middle ear (10 μL). The first dose 6-fluoro-9-methyl-β-carboline (e.g. 0.07 mg) was administered one hour after the acoustic trauma in a concentration of 0.007 mg/μL and the second dose 6-fluoro-9-methyl-β-carboline (0.035 mg in a volume of 5 μL) on day 3. Here, only one ear per animal was treated, while the second ear served as intra-individual control. The control here is particularly abbreviated to “contr.”. In comparative experiments it was found, that administration of just an active agent vehicle (hydrogel) has no effect in comparison to a fully untreated ear. For each active agent (including the controls) four guinea pigs were examined.
On day 14 after the acoustic trauma the region of the ear was dissected so that it contained the cochlea. […] In this way the sound induced damage can be localized and quantified. […]

As to `Cn1c2ccc(F)cc2c2ccncc21` [6F9MβC, 6-fluoro-9-methyl-β-carboline], the “acoustic trauma-induced dying of outer hair cells” value is “could be prevented”.
